pIC50: −log10 of the molar value.
Columns and labels:
[1] = molecular target: T1, hDNA2 (Homo sapiens, UniProt P51530); test: Fluorescence nuclease assay with hDNA2 (triply labeled ssDNA); type: biochemical; details: human DNA2 10 nM; substrate 0.1 μM; Figure 3c; read-out: IC50 (human DNA2), dose-response in vitro
T1 construct: made in house
T1 sequence (P51530 1-1060): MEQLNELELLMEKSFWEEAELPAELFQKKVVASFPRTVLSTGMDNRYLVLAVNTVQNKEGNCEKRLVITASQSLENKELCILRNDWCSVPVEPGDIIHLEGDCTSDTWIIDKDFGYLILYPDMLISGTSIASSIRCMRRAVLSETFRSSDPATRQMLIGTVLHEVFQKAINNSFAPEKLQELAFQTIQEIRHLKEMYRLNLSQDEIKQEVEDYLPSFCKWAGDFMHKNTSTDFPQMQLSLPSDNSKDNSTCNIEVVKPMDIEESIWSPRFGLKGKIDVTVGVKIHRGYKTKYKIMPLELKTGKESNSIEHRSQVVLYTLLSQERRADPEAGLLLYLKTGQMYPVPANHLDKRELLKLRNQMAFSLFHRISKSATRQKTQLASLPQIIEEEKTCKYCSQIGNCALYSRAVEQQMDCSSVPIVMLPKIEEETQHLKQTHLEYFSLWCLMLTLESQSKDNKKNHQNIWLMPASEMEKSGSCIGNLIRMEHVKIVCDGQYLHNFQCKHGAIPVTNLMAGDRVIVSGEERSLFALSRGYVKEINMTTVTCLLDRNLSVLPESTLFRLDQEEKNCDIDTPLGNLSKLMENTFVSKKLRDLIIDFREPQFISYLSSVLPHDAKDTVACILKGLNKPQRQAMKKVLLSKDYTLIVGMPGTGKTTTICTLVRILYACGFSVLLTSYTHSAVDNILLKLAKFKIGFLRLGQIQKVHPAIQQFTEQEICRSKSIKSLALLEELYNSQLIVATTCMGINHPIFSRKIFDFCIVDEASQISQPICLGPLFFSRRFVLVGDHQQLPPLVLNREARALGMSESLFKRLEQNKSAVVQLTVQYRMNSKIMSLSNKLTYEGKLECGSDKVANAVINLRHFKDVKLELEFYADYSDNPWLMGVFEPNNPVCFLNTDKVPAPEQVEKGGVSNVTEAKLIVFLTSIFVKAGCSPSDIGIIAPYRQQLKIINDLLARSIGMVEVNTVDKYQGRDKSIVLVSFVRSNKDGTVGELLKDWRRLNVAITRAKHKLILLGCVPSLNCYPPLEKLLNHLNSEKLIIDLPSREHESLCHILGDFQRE
Protocol: Figure 3 Validation of the top two inhibitors identified from the high-throughput screen. […] (b, c) Dose-response curves for indicated compounds, cell based (U2OS cell line) (b) and in vitro (c). The IC50 value and the protein concentration used are indicated. Triple labeled substrate (0.1 μM) as in Figure 2a was used. The concentration range of inhibitors was 0.003–666.67 μM. […] The asterisks denote the radiolabel. Plotted are the average data from three independent experiments and the error bars represent 1 s.d. […]
In addition, a second dark quencher ZEN (N,N-diethyl-4-(4-nitronaphthalen-1-ylazo)-phenylamine, absorption max.=532 nm) is placed between 9th and 10th base (Figure 2a). […] The optimal amount of yDna2, hDNA2 and T5 nuclease was determined by utilizing the Kaleidagraph software (Reading, PA, USA) to fit the data according to Michaelis Menton Kinetics (V=V0+Vmax*x/(Km+x)). […] The Z’ value was calculated as previously described.[50] Cell proliferation was determined using 4,6-diamidino-2-phenylindole staining followed by high-throughput microscopy in a 384-well plate setup. In brief, cells were fixed with formaldehyde, washed and stained with 4,6-diamidino-2-phenylindole and the number of nuclei in each well counted by automated microscopy. The data were analyzed as described.[51]

[2] = tested on: U2OS cells; test: Cell-based viability/proliferation screen, DAPI staining and automated microscopy; design: species or system human; details: for pIC50: Homo sapiens, 10 pM to 10 μM, DAPI staining, read-out: IC50 from Screening Cell Based
Protocol: The biological effectiveness of the 39 compounds selected by re-screening was determined by measuring their half maximal inhibitory concentration (IC50) biochemically and in a cell-based system using the 384-well platform (Supplementary Table S2). […] We conducted the viability assay in duplicate on three separate occasions using a concentration range of 10 pM to 10 μM for each compound. Cell proliferation was determined using 4,6-diamidino-2-phenylindole staining and microscopy.
In addition, a second dark quencher ZEN (N,N-diethyl-4-(4-nitronaphthalen-1-ylazo)-phenylamine, absorption max.=532 nm) is placed between 9th and 10th base (Figure 2a). Initial screen, it was performed with yDna2.[22] Then, the top candidate compounds were tested on hDNA2. Identical reaction conditions were used for assaying the nuclease activity of yDna2 and hDNA2. […] The reaction buffer was 20 mM HEPES/NaOH, pH 7.5, 60 mM KCl, 1 mM DTT, 100 μg/ml bovine serum albumin and 0.05% Triton X-100. The nuclease assay was initiated by adding MgCl2 (3 mM final concentration). T5 nuclease was assayed in the buffer (50 mM potassium acetate, pH 7.9, 20 mM Tris-acetate, 10 mM magnesium acetate and 1 mM DTT) provided by the vendor (NEB, Ipswich, MA, USA). The concentration of the fluorogenic substrate was 0.1 μM. The optimal amount of yDna2, hDNA2 and T5 nuclease was determined by utilizing the Kaleidagraph software (Reading, PA, USA) to fit the data according to Michaelis Menton Kinetics (V=V0+Vmax*x/(Km+x)). […] All the compounds were dissolved in DMSO and DMSO alone was used as control; the final concentration of DMSO was at 3.33% for protein-based assay and 0.1% for cell-based assay. The Z’ value was calculated as previously described.[50] Cell proliferation was determined using 4,6-diamidino-2-phenylindole staining followed by high-throughput microscopy in a 384-well plate setup. In brief, cells were fixed with formaldehyde, washed and stained with 4,6-diamidino-2-phenylindole and the number of nuclei in each well counted by automated microscopy. The data were analyzed as described.[51]

SMILES	pIC50 [1]	pIC50 [2]	Effect of longer exposure on cells ([2]; exposure >48 h)
NC1=C(Br)C(=O)c2ncccc2C1=O [NSC-105808, 6-amino-7-bromoquinoline-5,8-dione]	5.83	5.57	causes cell death
O=C1C(=O)c2cc([N+](=O)[O-])ccc2-c2ccccc21 [NSC-5195242, 2-nitrophenanthrene-9,10-dione]	5.51	6.00	
